Test systems include HT29 colon; SNB-19 CNS; A498 renal; OVCAR-4 ovarian; MDA-N; HS 578T breast; NCI-H226 lung; SN12C renal; T-47D breast; HCC-2998 colon; SNB-75 CNS; NCI-H23 lung.
What all share (assay): inhibition of tumour cell growth, NCI panel, 48 h

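Step 1: Grow cells in 96-well plates. Step 2: Expose to compound for 48 hours at 5 concentrations. Step 3: Interpolate endpoints linearly; if unreached, use highest concentration. Abbreviation: GI50, concentration required for 50% inhibition of growth. TGI denotes the concentration required for complete inhibition of growth.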

In the case of `COc1cc2c(cc1OC)CC(N=[N+]=[N-])c1cc(OC)c(OC)cc1/C=C\2` (stereo not given), the TGI in the experiment with HT29 colon is > 100 µM; with SNB-19 CNS it was > 100 µM; in the experiment with A498 renal it was > 100 µM; in the experiment on OVCAR-4 ovarian it was > 100 µM; in the experiment on MDA-N, 25.2 µM; in the experiment with HS 578T breast, > 100 µM. The TGI in the experiment on NCI-H226 lung, in the experiment on SN12C renal, in the experiment on T-47D breast, in the experiment with HCC-2998 colon and in the experiment with SNB-75 CNS was > 100 µM throughout.

As to `Cc1cccc(NC(=S)Nc2ccccc2Cl)n1`, the TGI was > 100 µM with HT29 colon; 97.5 µM with SNB-19 CNS; 64.6 µM with A498 renal; 57.8 µM in the experiment on OVCAR-4 ovarian; > 100 µM in the experiment on MDA-N; > 100 µM in the experiment with HS 578T breast. Moreover, the TGI is > 100 µM in the experiment on NCI-H226 lung, > 100 µM in the experiment on SN12C renal, > 100 µM with T-47D breast and 52.7 µM with SNB-75 CNS.

Turning to `CCC1C(c2cc(OC)c(OC)c(OC)c2)c2cc3c(cc2OC1N1CCOCC1)OCO3` (stereo not given), the TGI in the experiment with HT29 colon stood at 7.36 µM; with SNB-19 CNS, 25 µM; in the experiment with OVCAR-4 ovarian it was 14.6 µM; with MDA-N, 3.83 µM; with HS 578T breast, 28.9 µM; in the experiment with NCI-H226 lung it was 27.6 µM. The figures for the TGI in the experiment on SN12C renal, in the experiment with T-47D breast and with SNB-75 CNS were 28.6 µM, 61.8 µM and 26.3 µM, respectively.

Take `COc1cc(COC(=O)N2CCC2C(=O)O)c([N+](=O)[O-])cc1OC` (stereo not given): the TGI in the experiment with HT29 colon, in the experiment with SNB-19 CNS, in the experiment on A498 renal, with MDA-N, with HS 578T breast and in the experiment with NCI-H226 lung was > 100 µM each time. Further, the TGI in the experiment on SN12C renal, with T-47D breast, with HCC-2998 colon, in the experiment with SNB-75 CNS and with NCI-H23 lung was > 100 µM throughout.

`Cn1c2ccccc2c(=NNc2ccc(C(=O)O)cc2)c2ccccc21`: the TGI in the experiment on HT29 colon is 32.3 µM; in the experiment with SNB-19 CNS it was > 100 µM; in the experiment with OVCAR-4 ovarian, 49 µM; in the experiment on MDA-N, 33.7 µM; in the experiment on HS 578T breast, 55.9 µM; in the experiment with NCI-H226 lung it was 54 µM. In addition, the TGI with SN12C renal worked out at 75.3 µM; in the experiment on T-47D breast it was 58.9 µM; in the experiment with HCC-2998 colon it was 24.9 µM; in the experiment with SNB-75 CNS it was 56.5 µM; in the experiment with NCI-H23 lung it was 57.8 µM.

As for `CCN(CC)C(=S)SS(=O)(=O)c1ccc([N+](=O)[O-])cc1`, the GI50 in the experiment on HT29 colon was 22 µM; in the experiment on OVCAR-4 ovarian, 45.5 µM; with MDA-N it was 30.2 µM; in the experiment on HS 578T breast, > 100 µM; in the experiment with NCI-H226 lung, 83.8 µM; with SN12C renal, 26.9 µM. Besides, the GI50 in the experiment with HCC-2998 colon was 93.7 µM. Also, the TGI in the experiment on HT29 colon was 64.7 µM; with SNB-19 CNS, > 100 µM; in the experiment with A498 renal, > 100 µM; in the experiment with OVCAR-4 ovarian it was > 100 µM; with MDA-N it was > 100 µM; in the experiment on HS 578T breast, > 100 µM. Also, the TGI with NCI-H226 lung, with SN12C renal, in the experiment on T-47D breast, with HCC-2998 colon and in the experiment on NCI-H23 lung was > 100 µM in each case.

On to `CCOC(=O)C(NC(=O)Nc1ccc(Cl)c(Cl)c1)C(F)(F)F` (stereo not given), for which the TGI in the experiment on HT29 colon, in the experiment with SNB-19 CNS, with A498 renal, with MDA-N, with HS 578T breast and with SN12C renal was > 100 µM in each case. The TGI in the experiment with T-47D breast, in the experiment on HCC-2998 colon, in the experiment on SNB-75 CNS and with NCI-H23 lung was > 100 µM throughout.

Turning to `O=[N+]([O-])c1cccnc1NCC1(CO)CC(Cc2ccccc2)C1` (stereo not given), the TGI with HT29 colon, with A498 renal, in the experiment with OVCAR-4 ovarian, with MDA-N, in the experiment on HS 578T breast and in the experiment with NCI-H226 lung was > 100 µM each time. Also, the TGI in the experiment on SN12C renal, in the experiment with T-47D breast, in the experiment with HCC-2998 colon, in the experiment on SNB-75 CNS and with NCI-H23 lung was > 100 µM each time.

On to `CSC1=C(c2ccc(Cl)cc2)SC(N2CCCCC2)N1c1ccc([N+](=O)[O-])cc1` (stereo not given), for which the TGI in the experiment with HT29 colon is > 100 µM; with SNB-19 CNS it was > 100 µM; in the experiment on A498 renal it was 73.2 µM; with OVCAR-4 ovarian, > 100 µM; in the experiment on MDA-N it was > 100 µM; in the experiment on HS 578T breast, > 100 µM. Further, the TGI was > 100 µM in the experiment on NCI-H226 lung; 70.1 µM with T-47D breast; > 100 µM with HCC-2998 colon; 96.2 µM in the experiment on SNB-75 CNS; 85.2 µM in the experiment with NCI-H23 lung.

As to `CC(=O)OCC1=C(C)C(OC(=O)C(OC(C)=O)[C@@H](NC(=O)c2ccccc2)c2ccccc2)CCC1(C)C` (stereo not given in full), the TGI with HT29 colon, in the experiment with SNB-19 CNS, in the experiment on A498 renal, with OVCAR-4 ovarian, in the experiment with MDA-N and in the experiment on NCI-H226 lung was > 100 µM each time. For the same compound, the TGI in the experiment with SN12C renal, with T-47D breast, with HCC-2998 colon, in the experiment with SNB-75 CNS and with NCI-H23 lung was > 100 µM throughout.

With `COc1ccc2c3c1OC1c4[nH]c5ccccc5c4CC4(O)C(C2)N(C)CCC314` (stereo not given), the TGI is 49.3 µM in the experiment on HT29 colon; > 100 µM in the experiment on SNB-19 CNS; 31.6 µM with A498 renal; > 100 µM in the experiment on OVCAR-4 ovarian; 32.7 µM in the experiment on MDA-N; 67.7 µM in the experiment with HS 578T breast. Further, the TGI was > 100 µM in the experiment on SN12C renal; 43.6 µM in the experiment with T-47D breast; 31 µM in the experiment on HCC-2998 colon; > 100 µM in the experiment with SNB-75 CNS; > 100 µM in the experiment with NCI-H23 lung.

Turning to `COc1ccc(CCNC(=O)Cc2cc(OC)c(OC)cc2CO)cc1OC`, the TGI with HT29 colon, in the experiment with A498 renal, with OVCAR-4 ovarian, in the experiment on MDA-N, with HS 578T breast and with NCI-H226 lung was > 100 µM in each case. Moreover, the TGI with SN12C renal, in the experiment on T-47D breast, with HCC-2998 colon, in the experiment with SNB-75 CNS and with NCI-H23 lung was > 100 µM throughout.

The record behind these values is PubChem BioAssay (NCI).
